“Also recorded” adds a separate entry of the source.
How the values were obtained:
human SIRT1 (hSIRT1) = biological target: T1, human SIRT1 (hSIRT1) (Homo sapiens, UniProt Q96EB6); experiment: Human SIRT1 deacetylase inhibition, HDAC fluorescent activity assay (BIOMOL AK-500); assay type: biochemical; conditions: for inhibition at 100 µM: 100 μM inhibitor, read-out: % inhibtn (100 μM) hSIRT1; for inhibition at 100 µM / IC50: 200 μM NAD+, 37° C., 60 min; for fold more potent than sirtinol (1) in inhibiting hSIRT1: relative to sirtinol 1
T1 construct: His; made in house
T1 sequence (Q96EB6 1-747): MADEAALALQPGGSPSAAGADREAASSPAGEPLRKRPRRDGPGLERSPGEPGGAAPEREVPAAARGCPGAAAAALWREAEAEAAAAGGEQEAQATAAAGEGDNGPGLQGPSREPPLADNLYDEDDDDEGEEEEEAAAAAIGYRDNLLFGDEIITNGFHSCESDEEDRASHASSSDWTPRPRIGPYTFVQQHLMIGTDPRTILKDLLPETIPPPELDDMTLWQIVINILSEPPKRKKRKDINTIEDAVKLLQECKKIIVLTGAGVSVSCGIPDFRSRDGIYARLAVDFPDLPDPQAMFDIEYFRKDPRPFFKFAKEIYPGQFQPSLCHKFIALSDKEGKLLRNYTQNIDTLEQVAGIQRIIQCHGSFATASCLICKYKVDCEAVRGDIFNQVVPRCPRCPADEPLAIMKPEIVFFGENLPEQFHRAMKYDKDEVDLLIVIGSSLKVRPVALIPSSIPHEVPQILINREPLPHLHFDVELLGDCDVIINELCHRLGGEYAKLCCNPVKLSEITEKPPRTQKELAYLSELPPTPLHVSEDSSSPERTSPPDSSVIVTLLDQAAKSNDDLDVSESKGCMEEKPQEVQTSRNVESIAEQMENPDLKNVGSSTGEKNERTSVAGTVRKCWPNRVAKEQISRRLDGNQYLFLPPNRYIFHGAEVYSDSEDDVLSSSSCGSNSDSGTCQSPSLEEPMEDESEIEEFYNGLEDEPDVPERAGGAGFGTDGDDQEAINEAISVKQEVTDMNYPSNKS
Protocol: (§1) Recombinant His-tagged yeast ySir2 and His-tagged hSIRT1 were purified and assayed for deacetylase activity using the HDAC fluorescent activity assay/drug discovery kit (AK-500, BIOMOL Research Laboratories).^55 This assay system allows detection of a fluorescent signal upon deacetylation of a histone substrate when treated with developer. Fluorescence was measured on a fluorometric reader (Wallac Victor III fluorescence plate reader Perkin Elmer) with excitation set at 360 nm and emission detection set at 450 nm. Reactions consisted of either 3 μg of ySir2 or 1 μg of SIRT1, incubated with 250 μM acetylated histone substrate, 1 mM dithiothreitol, and a range of inhibitor concentrations as described. Reactions with the yeast and human proteins were carried out at 30 and 37° C., respectively, for 60 min. Assays were performed in the presence of 200 μM NAD^+ and each of the inhibitors at 0, 20, 75, 100, 150, or 300 μM concentrations.

yeast Sir2 (ySir2) = biological target: T2, yeast Sir2 (ySir2) (Saccharomyces cerevisiae, UniProt P06700); experiment: Yeast Sir2 deacetylase inhibition, HDAC fluorescent activity assay (BIOMOL AK-500); assay type: biochemical; conditions: for inhibition at 100 µM: 100 μM inhibitor, read-out: % inhibtn (100 μM) ySir2; for inhibition at 100 µM / IC50: 200 μM NAD+, 30° C., 60 min; for ySir2 inhibitory activity, in words: compared with sirtinol 1
T2 construct: His; made in house
T2 sequence (P06700 whole entry): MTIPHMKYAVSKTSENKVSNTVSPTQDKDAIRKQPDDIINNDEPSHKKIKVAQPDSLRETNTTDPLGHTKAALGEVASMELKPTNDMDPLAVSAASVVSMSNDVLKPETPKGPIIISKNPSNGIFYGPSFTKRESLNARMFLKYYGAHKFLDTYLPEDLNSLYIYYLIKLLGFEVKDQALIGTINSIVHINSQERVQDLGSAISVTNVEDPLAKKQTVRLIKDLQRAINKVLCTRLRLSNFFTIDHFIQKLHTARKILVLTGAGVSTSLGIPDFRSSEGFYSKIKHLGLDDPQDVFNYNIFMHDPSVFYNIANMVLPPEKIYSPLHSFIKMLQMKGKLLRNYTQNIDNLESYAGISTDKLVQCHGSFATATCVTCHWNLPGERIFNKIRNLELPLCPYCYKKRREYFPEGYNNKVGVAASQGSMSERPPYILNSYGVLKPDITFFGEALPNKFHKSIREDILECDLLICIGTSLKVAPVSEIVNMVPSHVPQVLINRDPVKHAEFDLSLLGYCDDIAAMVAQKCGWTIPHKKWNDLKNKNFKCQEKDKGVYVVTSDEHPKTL
Protocol: as §1
as §1, with “In Vitro Yeast Sir2 Enzyme Inhibition. Recombinant” for “Recombinant”, “Sir2p was” for “ySir2 and His-tagged hSIRT1 were”, “Laboratories).^42” for “Laboratories).^55”, “of” for “of either”, “ySir2” for “ySir2 or 1 μg of SIRT1,”

SIRT2 isoform 1 = biological target: T3, SIRT2 isoform 1 (Homo sapiens, UniProt Q8IXJ6); experiment: SIRT2 deacetylase inhibition, HDAC fluorescent activity assay (BIOMOL AK-500); assay type: biochemical; conditions: for inhibition at 100 µM: read-out: SIRT2 % inhibition at 100 μM, 100 μM compound; for IC50: dose response curve; for fold more potent than 1 in inhibiting SIRT2: relative to sirtinol 1
T3 construct: His; made in house
T3 sequence (Q8IXJ6 1-389): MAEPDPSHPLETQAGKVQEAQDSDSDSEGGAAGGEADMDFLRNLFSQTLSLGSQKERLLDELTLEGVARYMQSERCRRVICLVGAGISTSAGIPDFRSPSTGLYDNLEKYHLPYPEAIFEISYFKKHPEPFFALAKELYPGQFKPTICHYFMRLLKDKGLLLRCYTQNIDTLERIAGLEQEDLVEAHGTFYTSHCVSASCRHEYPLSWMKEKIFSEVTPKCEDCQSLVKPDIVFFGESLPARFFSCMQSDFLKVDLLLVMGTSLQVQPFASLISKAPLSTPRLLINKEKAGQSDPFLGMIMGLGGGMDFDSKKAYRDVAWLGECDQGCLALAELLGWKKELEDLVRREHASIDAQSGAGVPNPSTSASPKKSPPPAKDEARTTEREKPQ
Protocol: as §1
Recombinant His-tagged SIRT2 isoform 1 was purified and assayed for deacetylase activity using the HDAC fluorescent activity assay/drug discovery kit (AK-500, BIOMOL Research Laboratories) as described above. […] A dose response curve for determining the IC50 was also done.

[1] = system: Sir2-mediated telomeric URA3 gene silencing; experiment: Telomeric silencing assay (phenotypic screening, URA3 reporter, 5-FOA); assay type: cell-based, yeast; conditions: relative to sirtinol 1, plates with 5-FOA, densitometric scanning at 16.7 μM
Protocol: Wildtype (AYH2.45)^50 and sir2Δ (STY30)^50 strains were grown to exponential phase (0.5 OD/mL) in YPD medium and cells were spotted in 10-fold dilutions on SC medium containing 1 mg/mL 5-fluoroorotic acid (5-FOA).^51 When appropriate, cells were grown on plates containing 0.18% DMSO and the specified concentration of Sir2 inhibitor (5.6 and 16.7 μM). Cell growth was evaluated after 3-4 d at 30° C.
The yeast strain contained a URA3 reporter gene integrated into the sub-telomeric region of chromosome VII-L where it is silenced by Sir2.^50 In the presence of 5-fluoroorotic acid (5-FOA), loss of transcriptional silencing in this strain and the corresponding increase in URA3 expression is lethal (FIG. 2).^51
A semi-quantitative assay of the spots on the plates treated with 5-FOA and the Sir2 inhibitors at 16.7 μM concentration was performed by densitometric scanning of the plates.

SMILES: CC(NC(=O)c1ccccc1/N=C/c1c(O)ccc2ccccc12)c1ccccc1 (racemic) [Compound 1, sirtinol, reference compound]
- inhibition at 100 µM (human SIRT1 (hSIRT1)): 44.5%
- inhibition at 100 µM (yeast Sir2 (ySir2)): 65.6%
- inhibition at 100 µM (SIRT2 isoform 1): 71%

SMILES: NC(=O)c1ccccc1/N=C/c1c(O)ccc2ccccc12 [Compound 5]
- hSIRT1 inhibitory activity, in words (human SIRT1 (hSIRT1)): totally inactive
- inhibition at 100 µM (human SIRT1 (hSIRT1)): 0 to 5%
- inhibition at 100 µM (yeast Sir2 (ySir2)): 0 to 5%
- ySir2 inhibitory activity, in words (yeast Sir2 (ySir2)): totally inactive; also recorded: total loss of Sir2 inhibitory activity
- melting point: 238 to 240 °C

SMILES: N#Cc1ccccc1/N=C/c1c(O)ccc2ccccc12 [Compound 6]
- inhibition at 100 µM (human SIRT1 (hSIRT1)): 20%
- inhibition at 100 µM (yeast Sir2 (ySir2)): 15%
- fold less potent than sirtinol (1) in inhibiting ySir2 (yeast Sir2 (ySir2); relative to sirtinol 1): 4 fold
- melting point: 139 to 141 °C

SMILES: O=C(O)c1ccccc1/N=C/c1c(O)ccc2ccccc12 [Compound 4]
- inhibition at 100 µM (human SIRT1 (hSIRT1)): 26%
- inhibition at 100 µM (yeast Sir2 (ySir2)): 5%
- melting point: 180 to 182 °C

SMILES: CC(NC(=O)c1ccccc1/N=C/c1cccc2ccccc12)c1ccccc1 (stereo not shown) [Compound 2, 2-[(1-naphthalenylmethylene)amino]-N-(1-phenylethyl)benzamide]
- inhibition at 100 µM (human SIRT1 (hSIRT1)): 33%
- inhibition at 100 µM (yeast Sir2 (ySir2)): 10%
- melting point: 101 to 103 °C

SMILES: CC(NC(=O)c1cccc(/N=C/c2c(O)ccc3ccccc23)c1)c1ccccc1 (stereo not shown) [Compound 7, 3-[(2-hydroxy-1-naphthalenylmethylene)amino]-N-(1-phenylethyl)benzamide]
- Sir2 inhibitory potency in phenotypic screening, in words [1]: more potent inhibitors than 1; also recorded: more potent than sirtinol; also recorded: same potent Sir2 inhibitory as 1
- Sir2 inhibitory potency in phenotypic screening, in words ([1]; listed as meta-sirtinol): more potent Sir2 inhibitory activity than sirtinol
- inhibition at 100 µM (human SIRT1 (hSIRT1)): 63%
- IC50 (human SIRT1 (hSIRT1)): 59 ± 2 µM
- fold more potent than sirtinol (1) in inhibiting hSIRT1 (human SIRT1 (hSIRT1)): 2.2 fold
- fold more potent than sirtinol (1) in inhibiting hSIRT1 (human SIRT1 (hSIRT1); listed as meta-sirtinol): 2 fold
- inhibition at 100 µM (yeast Sir2 (ySir2)): 53.9%
- IC50 (yeast Sir2 (ySir2)): 72 ± 3 µM
- ySir2 inhibitory activity, in words (yeast Sir2 (ySir2)): IC50 values similar to that of 1; also recorded: IC50 values similar to those of 1
- fold less potent than sirtinol (1) in inhibiting ySir2 (yeast Sir2 (ySir2); relative to sirtinol 1): 1.5 fold
- IC50 (SIRT2 isoform 1): 35.7 µM
- inhibition at 100 µM (SIRT2 isoform 1): 79.2%
- fold more potent than 1 in inhibiting SIRT2 (SIRT2 isoform 1): 1.6 fold

SMILES: C[C@@H](NC(=O)c1ccccc1/N=C/c1c(O)ccc2ccccc12)c1ccccc1 [Compound 9, (R)-sirtinol]
- inhibition at 100 µM (human SIRT1 (hSIRT1)): 61.8%
- inhibition at 100 µM (yeast Sir2 (ySir2)): 55.5%
- ySir2 inhibitory activity, in words (yeast Sir2 (ySir2)): IC50 values similar to that of sirtinol 1
- inhibition at 100 µM (SIRT2 isoform 1): 72.2%

SMILES: C[C@H](NC(=O)c1ccccc1/N=C/c1c(O)ccc2ccccc12)c1ccccc1 [Compound 10, (S)-2-[(2-hydroxy-1-naphthalenylmethylene)amino]-N-(1-phenylethyl)benzamide]
- inhibition at 100 µM (human SIRT1 (hSIRT1)): 60.2%
- inhibition at 100 µM (yeast Sir2 (ySir2)): 57%
- ySir2 inhibitory activity, in words (yeast Sir2 (ySir2)): IC50 values similar to that of sirtinol 1
- inhibition at 100 µM (SIRT2 isoform 1): 73.5%

SMILES: CCOC(=O)c1ccccc1/N=C/c1c(O)ccc2ccccc12 [Compound 3]
- inhibition at 100 µM (human SIRT1 (hSIRT1)): 9%
- inhibition at 100 µM (yeast Sir2 (ySir2)): 20%
- fold less potent than sirtinol (1) in inhibiting ySir2 (yeast Sir2 (ySir2); relative to sirtinol 1): 3 fold

SMILES: CC(NC(=O)c1ccc(/N=C/c2c(O)ccc3ccccc23)cc1)c1ccccc1 (stereo not shown) [Compound 8, 4-[(2-hydroxy-1-naphthalenylmethylene)amino]-N-(1-phenylethyl)benzamide]
- Sir2 inhibitory potency in phenotypic screening, in words ([1]; listed as para-sirtinol): more potent Sir2 inhibitory activity than sirtinol
- inhibition at 100 µM (human SIRT1 (hSIRT1)): 82.6%
- IC50 (human SIRT1 (hSIRT1)): 13 µM
- fold more potent than sirtinol (1) in inhibiting hSIRT1 (human SIRT1 (hSIRT1)): 10 fold
- fold more potent than sirtinol (1) in inhibiting hSIRT1 (human SIRT1 (hSIRT1); listed as para-sirtinol): 8 fold
- inhibition at 100 µM (yeast Sir2 (ySir2)): 59.8%
- IC50 (yeast Sir2 (ySir2)): 33 ± 1 µM
- ySir2 inhibitory activity, in words (yeast Sir2 (ySir2)): IC50 values similar to that of 1; also recorded: IC50 values similar to those of 1
- fold more potent than sirtinol (1) in inhibiting ySir2 (yeast Sir2 (ySir2); relative to sirtinol 1): 1.5 fold
- SIRT2 inhibitory potency, in words (SIRT2 isoform 1; among compounds 1, 7-10): most potent
- IC50 (SIRT2 isoform 1): 25.9 µM
- inhibition at 100 µM (SIRT2 isoform 1): 80.2%
- fold more potent than 1 in inhibiting SIRT2 (SIRT2 isoform 1): 2.2 fold

From US20090137681A1, “Sirtuin Inhibiting Compounds” (priority 2005, published 2009)
